Reference: US8658645B2, “Use of quinolone antibiotics” (Bayer Intellectual Property GmbH, priority 2003, dated 2014)
≈ marks a conversion by molar mass, not a printed value. Like-named read-outs stand apart in the source and are kept apart here.

How the values were obtained:
Prevotella = assay: Geometric mean MIC of anaerobic bacteria isolated from dogs and cats (in vitro); format: cell-based; settings: N=25, isolated from dogs and cats, two in vitro studies, read-out: GMIC (geometric mean of the MIC values)
Excerpt: (§1) Results of In Vitro Studies Geometric mean of the MIC values (Geometric Mean MIC; GMIC) of anaerobic bacteria isolated from dogs and cats compared to the standard metronidazole (μg/ml).

Fusobacterium = assay: as above; format: cell-based; settings: N=11, isolated from dogs and cats, two in vitro studies, read-out: GMIC (geometric mean of the MIC values)
Excerpt: as §1

Porphyromonas = assay: as above; format: cell-based; settings: N=8, isolated from dogs and cats, two in vitro studies, read-out: GMIC (geometric mean of the MIC values)
Excerpt: as §1

Peptostreptococcus = assay: as above; format: cell-based; settings: N=4, isolated from dogs and cats, two in vitro studies, read-out: GMIC (geometric mean of the MIC values)
Excerpt: as §1

Bacteroides = assay: as above; format: cell-based; settings: N=37, isolated from dogs and cats, two in vitro studies, read-out: GMIC (geometric mean of the MIC values)
Excerpt: as §1

Fusobacterium nucleatum = assay: In vitro MIC, parodontitis-causing bacteria; format: cell-based; settings: two strains
Procedure: (§2) In this study, in each case two strains of the parodontitis-causing bacteria were isolated, and their sensitivity to pradofloxacin was determined in vitro (MIC μg/ml).

Eikenella corrodens = assay: In vitro MIC, parodontitis-causing bacteria; format: cell-based; settings: two strains
Procedure: as §2

Porphyromonas gingivalis = assay: In vitro MIC, parodontitis-causing bacteria; format: cell-based; settings: two strains
Procedure: as §2

Porphyromonas cansulci = assay: In vitro MIC, parodontitis-causing bacteria; format: cell-based; settings: Porphyromonas crevioricanis, two strains
Procedure: as §2

Campylobacter rectus = assay: In vitro MIC, parodontitis-causing bacteria; format: cell-based; settings: two strains
Procedure: as §2

Prevotella intermedia = assay: In vitro MIC, parodontitis-causing bacteria; format: cell-based; settings: two strains
Procedure: as §2

[1] = system: Porphyromonas cangingivalis; assay: In vitro MIC, parodontitis-causing bacteria; format: cell-based; settings: two strains
Procedure: as §2

[2] = system: Actinobacillus actinomycetemcomitans; assay: In vitro MIC, parodontitis-causing bacteria; format: cell-based; settings: Aggregatibacter actinomycetemcomitans, two strains
Procedure: as §2

Capnocytophaga ochracea = assay: In vitro MIC, parodontitis-causing bacteria; format: cell-based; settings: two strains
Procedure: as §2

Porphyromonas canons = assay: In vitro MIC, parodontitis-causing bacteria; format: cell-based; settings: two strains
Procedure: as §2

parodontitis = assay: Clinical study for the indication parodontitis; format: in vivo; settings: female beagles, 3 mg/kg once per day for seven days
Procedure: Clinical Study for the Indication Parodontitis
The study was carried out using 16 female beagles. Pradofloxacin was administered in a dose of 3 mg/kg once per day over a period of seven days.

Compound | MIC (Prevotella) | MIC (Fusobacterium) | MIC (Porphyromonas) | MIC (Peptostreptococcus) | MIC (Bacteroides) | MIC (Fusobacterium nucleatum) | MIC (Fusobacterium nucleatum; read-out: MIC) | MIC (Eikenella corrodens) | MIC (Porphyromonas gingivalis) | MIC (Porphyromonas cansulci) | MIC (Campylobacter rectus) | MIC (Prevotella intermedia) | MIC [1] | MIC ([1]; read-out: MIC) | MIC [2] | MIC (Capnocytophaga ochracea) | MIC (Porphyromonas canons) | total number of anaerobic bacteria in the periodontal pockets (parodontitis; after the treatment had ended, p<0.0001) | periodontal pocket depth (loss of attachment) (parodontitis; p=0.02) | total number of anaerobic bacteria in the periodontal pockets (parodontitis; three weeks after the treatment, day 28, p=0.0007)
Cc1ncc([N+](=O)[O-])n1CCO [metronidazole, reference compound] | 0.4 µg/mL | 1 µg/mL | 0.3 µg/mL | 0.8 µg/mL | 0.7 µg/mL | – | – | – | – | – | – | – | – | – | – | – | – | – | – | –
N#Cc1c(N2C[C@@H]3CCCN[C@@H]3C2)c(F)cc2c(=O)c(C(=O)O)cn(C3CC3)c12 [pradofloxacin, 8-cyano-1-cyclopropyl-7-((1S,6S)-2,8-diazabicyclo[4.3.0]nonan-8-yl)-6-fluoro-1,4-dihydro-4-oxo-3-quinolinecarboxylic acid] | 0.2 µg/mL | 0.5 µg/mL | 0.1 µg/mL | 0.4 µg/mL | 0.4 µg/mL | 1 µg/mL (≈ 2.52 µM) | 0.5 µg/mL (≈ 1.26 µM) | < 0.25 µg/mL | < 0.25 µg/mL | < 0.25 µg/mL | < 0.25 µg/mL | < 0.25 µg/mL | 1 µg/mL (≈ 2.52 µM) | 0.5 µg/mL (≈ 1.26 µM) | < 0.25 µg/mL | < 0.25 µg/mL | < 0.25 µg/mL | reduced significantly | significant reduction | reduced significantly
